Laboratory results from PubChem BioAssay AID296 (DTP/NCI, 2004).
Where “and” joins values, the source holds several entries; their conditions need not be identical. Equal values may be shown once. Records with an inconclusive call do not appear.

Test system: MX-1 breast xenograft, nude mice, tumor weight T/C
Experiment: NCI In Vivo Anticancer Drug Screen. Data for tumor model Human Mammary Carcinoma MX-1 Xenograft (intrarenal inoculation) in NU/NU Swiss (nude) mice
Conditions: endpoint: mean tumor weight change, higher = larger tumour
Experimental: The antitumor activity of compounds was measured in mice bearing transplantable tumors. Survival or tumor size were measured and the results are expressed as the measurement made in the treated group (T) divided by the measurement made in the vehicle treated control group (C). The tumor model used in this assay is Human Mammary Carcinoma MX-1 Xenograft (intrarenal inoculation) in NU/NU Swiss (nude) mice

[1] = dose: 100.0 mg/kg/injection, schedule: Q04DX003 (sc), vehicle: saline with Tween-80
[2] = dose: 200.0 mg/kg/injection, schedule: Q04DX003 (sc), vehicle: saline with Tween-80
[3] = dose: 400.0 mg/kg/injection, schedule: Q04DX003 (sc), vehicle: saline with Tween-80
[4] = dose: 800.0 mg/kg/injection, schedule: Q04DX003 (sc), vehicle: saline with Tween-80
[5] = dose: 100.0 mg/kg/injection, schedule: Q01DX010 (sc), vehicle: saline
[6] = dose: 150.0 mg/kg/injection, schedule: Q04DX003 (sc), vehicle: suspension in saline
[7] = dose: 600.0 mg/kg/injection, schedule: Q04DX003 (sc), vehicle: suspension in saline
[8] = dose: 1200.0 mg/kg/injection, schedule: Q04DX003 (sc), vehicle: suspension in saline
[9] = dose: 300.0 mg/kg/injection, schedule: Q04DX003 (sc), vehicle: Klucel (hydroxypropylcellulose) (HPC)
[10] = dose: 600.0 mg/kg/injection, schedule: Q04DX003 (sc), vehicle: saline with Tween-80
[11] = dose: 1200.0 mg/kg/injection, schedule: Q04DX003 (sc), vehicle: saline with Tween-80
[12] = dose: 50.0 mg/kg/injection, schedule: Q04DX003 (sc), vehicle: Klucel (hydroxypropylcellulose) (HPC)
[13] = dose: 100.0 mg/kg/injection, schedule: Q04DX003 (sc), vehicle: Klucel (hydroxypropylcellulose) (HPC)
[14] = dose: 200.0 mg/kg/injection, schedule: Q04DX003 (sc), vehicle: Klucel (hydroxypropylcellulose) (HPC)
[15] = dose: 600.0 mg/kg/injection, schedule: Q04DX003 (sc), vehicle: Klucel (hydroxypropylcellulose) (HPC)
[16] = dose: 1200.0 mg/kg/injection, schedule: Q04DX003 (sc), vehicle: Klucel (hydroxypropylcellulose) (HPC)
[17] = dose: 300.0 mg/kg/injection, schedule: Q04DX003 (sc), vehicle: suspension in saline

With `COc1cccc2c1C(=O)c1c(O)c3c(c(O)c1C2=O)C[C@@](O)(C(=O)CO)C[C@@H]3OC1CC(N(C)C)C(O)C(C)O1` (stereo partly specified) the T/C (dose: 3.0 mg/kg/injection, schedule: Q01DX010 (sc), vehicle: water) was 211 % of control and the T/C (dose: 6.0 mg/kg/injection, schedule: Q01DX010 (sc), vehicle: water) was 227 % of control.
`CCCCc1ccc2nc(NC(=O)OC)[nH]c2c1` was tested, and the T/C (dose: 200.0 mg/kg/injection, schedule: Q01DX010 (sc), vehicle: saline with Tween-80) was 109 % of control, the T/C (dose: 400.0 mg/kg/injection, schedule: Q01DX010 (sc), vehicle: saline with Tween-80) was 69 % of control and the T/C (dose: 800.0 mg/kg/injection, schedule: Q01DX010 (sc), vehicle: saline with Tween-80) was 48 % of control.
In the case of `O=C(O[Si](Cc1ccccc1)(Cc1ccccc1)Cc1ccccc1)N(CCCl)CCCl`, the T/C [1] is reported as 78 % of control and the T/C [2] is reported as 29 % of control.
In the case of `O=C(O)C1Cc2nc[nH]c2CN1CO` (stereo unspecified), the T/C [1] is reported as 113 % of control, the T/C [2] is reported as 113 % of control and the T/C [3] is reported as 80 % of control. For the same compound, the T/C [4] was 99 % of control.
With `Nc1ncn(C2CC(O)C(CO)O2)c(=O)n1` (stereo unspecified) the T/C (dose: 0.2 mg/kg/injection, schedule: Q01DX010 (sc), vehicle: saline) was 114 % of control.
For `C[N+](C)(C)c1ncnc2c1ncn2C1CCCO1` (stereo unspecified), the T/C (dose: 0.25 mg/kg/injection, schedule: Q01DX010 (sc), vehicle: saline) was 83 % of control, the T/C (dose: 0.5 mg/kg/injection, schedule: Q01DX010 (sc), vehicle: saline) was 112 % of control and the T/C (dose: 1.0 mg/kg/injection, schedule: Q01DX010 (sc), vehicle: saline) was 50 % of control. For the same compound, the T/C (dose: 2.0 mg/kg/injection, schedule: Q01DX010 (sc), vehicle: saline) was 163 % of control.
`Cc1cn(C2CC3[O][Sn]([c]4ccccc4)([c]4ccccc4)[O]CC3O2)c(=O)[nH]c1=O` (stereo unspecified) was tested, and the T/C (dose: 25.0 mg/kg/injection, schedule: Q01DX010 (sc), vehicle: saline) was 93 % of control, the T/C [5] was 93 % of control and the T/C (dose: 200.0 mg/kg/injection, schedule: Q01DX010 (sc), vehicle: saline) was 115 % of control. For the same compound, the T/C (dose: 600.0 mg/kg/injection, schedule: Q04DX003 (sc), vehicle: saline) was 86 % of control, the T/C (dose: 1200.0 mg/kg/injection, schedule: Q04DX003 (sc), vehicle: saline) was 107 % of control and the T/C (dose: 2400.0 mg/kg/injection, schedule: Q04DX003 (sc), vehicle: saline) was 64 % of control.
In the case of `COC1C(/C=C/C(C)=O)OC2OC(C)(C)OC21` (stereo unspecified), the T/C (dose: 75.0 mg/kg/injection, schedule: Q04DX003 (sc), vehicle: suspension in saline) is reported as 97 % of control, the T/C [6] is reported as 160 % of control and the T/C [7] is reported as 82 % of control. The T/C [8] was 63 % of control.
`O=c1s[se]c2ccccc12` was tested, and the T/C (dose: 150.0 mg/kg/injection, schedule: Q04DX003 (sc), vehicle: Klucel (hydroxypropylcellulose) (HPC)) was 55 % of control and the T/C [9] was 55 % of control.
`CCN(CC)CCNc1ccc(C)c2sc3ccc(O)cc3c(=O)c12` was tested, and the T/C [10] was 67 % of control and the T/C [11] was 57 % of control.
`O=C1c2c(O)cccc2-c2nn(CCNCCO)c3ccc(NCCNCCO)c1c23` was tested, and the T/C (dose: 11.0 mg/kg/injection, schedule: Q04DX003 (ip), vehicle: water) was -100 % of control.
With `c1ccc(OCC2CO2)c(OCC2CO2)c1` (stereo unspecified) the T/C (dose: 150.0 mg/kg/injection, schedule: Q04DX003 (ip), vehicle: saline with Tween-80) was 95 % of control and the T/C (dose: 300.0 mg/kg/injection, schedule: Q04DX003 (ip), vehicle: saline with Tween-80) was 99 % of control.
In the case of `O=c1[nH]c2c(ccc3cnccc32)c2c1CCC2`, the T/C (dose: 50.0 mg/kg/injection, schedule: Q04DX003 (sc), vehicle: suspension in saline) is reported as 71 % of control, the T/C (dose: 200.0 mg/kg/injection, schedule: Q04DX003 (sc), vehicle: suspension in saline) is reported as 70 % of control and the T/C (dose: 400.0 mg/kg/injection, schedule: Q04DX003 (sc), vehicle: suspension in saline) is reported as 100 % of control.
For `Nc1nc2ccc(NCc3ccc(C(=O)NC(CCC(=O)O)C(=O)O)cc3)cc2c(=O)[nH]1` (stereo unspecified), the T/C [1] was 93 % of control, the T/C [2] was 93 % of control and the T/C [3] was 90 % of control. The T/C [4] was 23 % of control.
With `O=C(C#Cc1ccccc1)c1ccccc1` the T/C [12] was 76 % of control, the T/C [13] was 113 % of control and the T/C [14] was 87 % of control. The T/C [9] was 87 % of control, the T/C (dose: 400.0 mg/kg/injection, schedule: Q04DX003 (sc), vehicle: Klucel (hydroxypropylcellulose) (HPC)) was 42 % of control and the T/C [15] was 110 % of control. The T/C [16] was 104 % of control.
For `C=C1C(=O)OC2CC(C)C3C4OC4C(O)C3(C)C(O)C12` (stereo unspecified), the T/C [1] was 113 % of control, the T/C [2] was 116 % of control and the T/C [3] was 101 % of control.
In the case of `O=C1C(=O)c2cccnc2-c2ncccc21`, the T/C (dose: 20.0 mg/kg/injection, schedule: Q04DX003 (sc), vehicle: Klucel (hydroxypropylcellulose) (HPC)) is reported as 60 % of control.
For `C(CC1CO1)C1CO1` (stereo unspecified), the T/C [5] was -59 % of control and -41 % of control, the T/C [6] was 1 % of control and 11 % of control and the T/C [17] was 4 % of control.
`COC1C(O)C(C)OC(OC2C(Oc3cccc4c(O)c5c(=O)oc6ccc(C)c7c(=O)oc(c34)c5c67)OC(C)C(O)C2O)C1O` (stereo unspecified) was tested, and the T/C [9] was 90 % of control, the T/C [15] was 94 % of control and the T/C [16] was 70 % of control. The T/C (dose: 2400.0 mg/kg/injection, schedule: Q04DX003 (sc), vehicle: Klucel (hydroxypropylcellulose) (HPC)) was 49 % of control.
For `CC(C)(C)N1CC1CNC(=O)C(=O)NCC1CN1C(C)(C)C` (stereo unspecified), the T/C (dose: 50.0 mg/kg/injection, schedule: Q04DX003 (sc), vehicle: saline with Tween-80) was -41 % of control and -29 % of control.
With `C=C(C(=O)O)C(N)C(=O)O` (stereo unspecified) the T/C [17] was 96 % of control, the T/C [7] was 78 % of control and the T/C [8] was 88 % of control.
For `CN(C)c1ccc(C(=C2C=CC(=[N+](C)C)C=C2)c2ccc(N(C)C)cc2)cc1` (tested in a mixture with another compound), the T/C (dose: 15.0 mg/kg/injection, schedule: Q04DX003 (sc), vehicle: saline with Tween-80) was 70 % of control, the T/C (dose: 30.0 mg/kg/injection, schedule: Q04DX003 (sc), vehicle: saline with Tween-80) was 104 % of control and the T/C (dose: 60.0 mg/kg/injection, schedule: Q04DX003 (sc), vehicle: saline with Tween-80) was 97 % of control. The T/C (dose: 120.0 mg/kg/injection, schedule: Q04DX003 (sc), vehicle: saline with Tween-80) was 82 % of control.
For `CSc1cc(C)[o+]c(C)c1`, the T/C (dose: 25.0 mg/kg/injection, schedule: Q04DX003 (sc), vehicle: Klucel (hydroxypropylcellulose) (HPC)) was 76 % of control, the T/C [12] was 68 % of control and the T/C [13] was 54 % of control. The T/C [14] was 36 % of control.
`C/C(=N\NC(N)=O)c1cccc(/C(C)=N/NC(N)=O)n1` was tested, and the T/C [10] was 98 % of control and the T/C [11] was 74 % of control.
For `CO[C@H](/C(C)=C/C=C/C(C)=C/c1coc(C)n1)[C@H](C)[C@H]1C[C@@H](O)[C@@]2(C)O[C@H]2/C=C/[C@@H](C)[C@@H]2C[C@@H](CC(=O)O2)C[C@H]2O[C@@H]2C(=O)O1`, the T/C (dose: 0.25 mg/kg/injection, schedule: Q04DX003 (ip), vehicle: Klucel (hydroxypropylcellulose) (HPC)) was 34 % of control, the T/C (dose: 0.5 mg/kg/injection, schedule: Q04DX003 (ip), vehicle: Klucel (hydroxypropylcellulose) (HPC)) was 2 % of control and the T/C (dose: 1.0 mg/kg/injection, schedule: Q04DX003 (ip), vehicle: Klucel (hydroxypropylcellulose) (HPC)) was 3 % of control. For the same compound, the T/C (dose: 2.0 mg/kg/injection, schedule: Q04DX003 (ip), vehicle: Klucel (hydroxypropylcellulose) (HPC)) was -26 % of control.
In the case of `O=C(O)C(CSC(c1ccccc1)(c1ccccc1)c1ccccc1)N=Cc1cccs1` (stereo unspecified), the T/C (dose: 800.0 mg/kg/injection, schedule: Q04DX003 (sc), vehicle: suspension in saline) is reported as 67 % of control.
In the case of `Nc1nc(/C=C(/O)c2ccccc2)c2ncn(C3OC(CO)C(O)C3O)c2n1` (stereo unspecified), the T/C (dose: 200.0 mg/kg/injection, schedule: Q04DX003 (sc), vehicle: distilled water + Tween-80) is reported as 97 % of control, the T/C (dose: 400.0 mg/kg/injection, schedule: Q04DX003 (sc), vehicle: distilled water + Tween-80) is reported as 100 % of control and the T/C (dose: 800.0 mg/kg/injection, schedule: Q04DX003 (sc), vehicle: distilled water + Tween-80) is reported as 92 % of control. For the same compound, the T/C (dose: 1600.0 mg/kg/injection, schedule: Q04DX003 (sc), vehicle: distilled water + Tween-80) was 99 % of control.
